# Experimental data from patent US10889566B2, “Derivatives and composition of quinoline and naphthyridine” (CHULABHORN FOUNDATION, priority 2017, dated 2021).
# Counter-ions that a name gives are not always drawn.
# Tests used:
# [1] = target: HIV-1 RT (Human immunodeficiency virus type 1 group M subtype B, UniProt P04585); test: In vitro HIV-1 reverse transcriptase (HIV-1 RT) kit assay; assay type: biochemical; details: for inhibition at 1 µM: read-out: Inhibition rate (%) (HIV-RT kit assay) (1 μM)
# Protocol: In Vitro HIV-1 Reverse Transcriptase (HIV-1 RT) Kit Assay
# The HIV-RT inhibition assay was performed using an RT assay kit (Roche) according to the protocol of the kit. […] After 1 h of incubation at 37° C., the reaction mixture was transferred to a streptavidine-coated microtiter plate (MTP). Biotin-labeled dNTPs were incorporated in the template, because of the activity of RT bound to steptavidine. The unbound dNTPs were washed with wash buffer, and antidigoxigenin-peroxidase (anti-DIG-POD) was added to the MTP. The digoxigenin-labeled dNTPs incorporated in the template was bound to the anti-DIG-POD antibody. The unbound anti-DIG-POD was washed, and the peroxide substrate (ABST) was added to the MTP. A colored reaction product was produced during the cleavage of the substrate catalyses with a peroxide enzyme. […] The resulting color intensity was directly proportional to the actual RT activity. The percentage inhibitory activity of the RT inhibitors was calculated by comparing it to that of the sample without an inhibitor.
# [2] = test system: acute lymphoblastic leukemia (MOLT-3); test: cells; details: for IC50 (μg/mL) MOLT-3: MOLT-3 (Acute lymphoblastic leukemia), mean ± standard error, triplicate
# Protocol: (§1) Background control wells contained the same volume of the complete culture medium. […] Samples at various concentrations were added to the microplate, which was incubated for another 48 h. Cell viability was determined by staining with MTT assay [3(4,5-dimethylthiazol-2-yl)-2-5diphenyl tetrazolium bromide (Sigma-Aldrich, St. Louis, Mo., USA)]. The reagent was dissolved in phosphate buffered saline at 5 mg/mL and filtered to sterilize and remove the small amount of insoluble residue present in some batches of MTT. […] Subsequently, dimethyl sulfoxide (Merck, Germany) (100 μL) was added to dissolve the resulting formazan by using sonication. The plates were read on a microplate reader (Molecular Devices, CA, USA). OD was measured at testing wavelength of 550 nm and reference wavelength of 650 nm.
# XTT assay (3′-[1-[(phenylamino)-carbonyl]-3,4-tetrazolium]-bis(4-methoxy-6-nitro)benzene-sulfonic acid hydrate) for suspension cells was performed for acute lymphoblastic leukemia (MOLT-3).
# [3] = test system: lung carcinoma; test: cells; details: for IC50 (μg/mL) A549: A549 (Lung carcinoma), mean ± standard error, triplicate
# Protocol: as §1
# [4] = test system: hepatocarcinoma; test: cells; details: for IC50 (μg/mL) HepG2: HepG2 (Hepatocarcinoma), mean ± standard error, triplicate; for IC50: Homo sapiens, HepG2, read-out: IC50 (μg/mL) HepG2
# Protocol: as §1
# [5] = test system: cholangiocarcinoma; test: cells; details: for IC50 (μg/mL) HuCCA-1: HuCCA-1 (Cholangiocarcinoma), mean ± standard error, triplicate
# Protocol: as §1
# [6] = test system: BxPC-3 pancreatic cancer cells; details: read-out: in vitro EC50; cited from earlier work
Structure (SMILES),Inhibition rate (%) (HIV-RT kit assay) (1 μM) [1],IC50 (μg/mL) MOLT-3 [2] [µg/mL],IC50 (μg/mL) A549 [3] [µg/mL],IC50 (μg/mL) HepG2 [4] [µg/mL],IC50 (μg/mL) HuCCA-1 [5] [µg/mL],also measured
Cc1cc(C=O)cc(C)c1Oc1cc(Oc2c(C)cc(C=O)cc2C)c2ccccc2n1 [Compound 1],42.08,2.62 ± 0.30,16.37 ± 0.56,21.55 ± 5.23,4.71 ± 0.30,
Cc1cc(C=O)cc(C)c1Oc1cc(Nc2ccc(C#N)cn2)nc2ccccc12 [Compound 4],62.23,4.98 ± 0.43,42.44 ± 0.48,36.53 ± 4.65,49.5 ± 0.71,
Cc1cc(C#N)cc(C)c1Oc1cc(Oc2c(C)cc(C#N)cc2C)c2ccccc2n1 [Compound 5],40.31,≥50,23.28 ± 2.40,38.67 ± 2.87,35.02 ± 4.65,
Cc1cc(C#N)cc(C)c1Oc1cc(Nc2ccc(C#N)cc2)nc2ccccc12 [Compound 6],47.16,19.04 ± 16.02,≥50,≥50,≥50,
N#Cc1ccc(Nc2cc(Oc3ccc(C#N)cc3)c3ccccc3n2)cc1 [Compound 7],39.71,≥50,≥50,≥50,≥50,
N#Cc1ccc(Oc2cc(Nc3ccc(C#N)cn3)nc3ccccc23)cc1 [Compound 8],27.61,5.12 ± 0.41,5.09 ± 0.81,39.96 ± 0.26,8.31 ± 0.33,
"O=C1Nc2ccc(Cl)cc2[C@@](C#CC2CC2)(C(F)(F)F)O1 [EFV, efavirenz]",,,,,,EC50 [6]: 315 µM
"Cc1ccnc2c1NC(=O)c1cccnc1N2C1CC1 [NVP, nevirapine, reference compound]",,,,,,inhibition at 1 µM [1]: 55.6%
"Cc1cc(/C=C/C#N)cc(C)c1Nc1ccnc(Nc2ccc(C#N)cc2)n1 [TMC278, rilpivirine, reference compound]",,,,,,inhibition at 1 µM [1]: 96.5%
"COc1cccc2c1C(=O)c1c(O)c3c(c(O)c1C2=O)C[C@@](O)(C(=O)CO)C[C@@H]3O[C@H]1C[C@H](N)[C@H](O)[C@H](C)O1 [doxorubicin hydrochloride, reference compound]",,,,,,"IC50 ([3]; Homo sapiens, A549, read-out: IC50 (μg/mL) A549): 0.19 ± 0.01 µg/mL; IC50 [4]: 0.23 ± 0.02 µg/mL; IC50 ([5]; Homo sapiens, HuCC-A1, read-out: IC50 (μg/mL) HuCCA-1): 0.89 ± 0.04 µg/mL"
"COc1cc([C@@H]2c3cc4c(cc3[C@@H](O[C@@H]3O[C@@H]5CO[C@@H](C)O[C@H]5[C@H](O)[C@H]3O)[C@H]3COC(=O)[C@H]23)OCO4)cc(OC)c1O [etoposide, reference compound]",,,,,,"IC50 ([2]; Homo sapiens, MOLT-3, read-out: IC50 (μg/mL) MOLT-3): 0.048 ± 0.007 µg/mL; IC50 [4]: 21.1 ± 0.7 µg/mL"
